According to ChEMBL document CHEMBL3392984, “Two new protein tyrosine phosphatase 1B inhibitors, hyattellactones A and B, from the Indonesian marine sponge Hyattella sp” (Bioorg Med Chem Lett, 2015):
Calls of active or inactive are those of the source. The rule behind the calls is not given here.

How the values were obtained:
[1] = molecular target: T1, Tyrosine-protein phosphatase non-receptor type 1 (Homo sapiens) (UniProt P18031); assay: Inhibition of PTP1B (unknown origin) at 24.2 uM
T1 sequence (whole entry): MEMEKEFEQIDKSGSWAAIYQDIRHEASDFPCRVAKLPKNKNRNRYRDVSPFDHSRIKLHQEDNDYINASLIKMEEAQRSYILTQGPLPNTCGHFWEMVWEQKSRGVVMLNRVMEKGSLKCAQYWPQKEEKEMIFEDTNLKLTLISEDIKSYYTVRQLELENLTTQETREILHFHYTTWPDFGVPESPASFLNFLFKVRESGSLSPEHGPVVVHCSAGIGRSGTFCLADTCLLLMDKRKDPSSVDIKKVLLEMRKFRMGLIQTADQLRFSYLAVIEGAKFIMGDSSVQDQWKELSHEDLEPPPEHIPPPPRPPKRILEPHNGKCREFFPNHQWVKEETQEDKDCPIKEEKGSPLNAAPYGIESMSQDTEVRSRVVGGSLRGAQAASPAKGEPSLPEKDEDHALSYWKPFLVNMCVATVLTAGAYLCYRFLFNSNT

[2] = test system: Jurkat; assay: Cytotoxicity against human Jurkat cells at 24.2 uM; assay type: functional, cell-based
[3] = molecular target: T2, Tyrosine-protein phosphatase non-receptor type 1 (Homo sapiens, UniProt P18031); assay: Inhibition of PTP1B (unknown origin)
T2 sequence (P18031 whole entry): T1 sequence (whole entry)

| Structure (SMILES) | inhibition [1] | inhibition [2] | IC50 [3] [µM] |
| --- | --- | --- | --- |
| CC[C@]12CCCC(C)(C)[C@@H]1CC[C@]1(C)[C@@H]2C[C@@H](O)[C@]2(C)C3=C(CC[C@@H]12)[C@H](C)OC3=O | 42% | inactive |  |
| CC[C@@]1(C)CCC[C@]2(C)[C@H]3C[C@@H](O)[C@]4(C)C5=C(CC[C@H]4[C@]3(C)CC[C@@H]12)[C@H](C)OC5=O | inactive | inactive |  |
| CC[C@]12CCCC(C)(C)[C@@H]1CC[C@]1(C)[C@@H]2C[C@@H](O)[C@]2(C)C3=C(CC[C@@H]12)[C@@H](C)OC3=O | 42% | inactive | 7.45 |
| CC[C@@]1(C)CCC[C@]2(C)[C@H]3C[C@@H](O)[C@]4(C)C5=C(CC[C@H]4[C@]3(C)CC[C@@H]12)[C@@H](C)OC5=O | inactive | inactive | 7.47 |
